Where only a bound is given, the exact number is not on record here.

In general, IC50 refers to the point on the concentration scale where inhibition reaches its midpoint.
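Further: fluorescence intensity readout of USP7 enzymatic activity, reaction incubated 90 min at room temperature.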

The target of this assay is USP7 (Homo sapiens, UniProt Q93009). In words: biochemical.
USP7, sequence (Q93009 whole entry): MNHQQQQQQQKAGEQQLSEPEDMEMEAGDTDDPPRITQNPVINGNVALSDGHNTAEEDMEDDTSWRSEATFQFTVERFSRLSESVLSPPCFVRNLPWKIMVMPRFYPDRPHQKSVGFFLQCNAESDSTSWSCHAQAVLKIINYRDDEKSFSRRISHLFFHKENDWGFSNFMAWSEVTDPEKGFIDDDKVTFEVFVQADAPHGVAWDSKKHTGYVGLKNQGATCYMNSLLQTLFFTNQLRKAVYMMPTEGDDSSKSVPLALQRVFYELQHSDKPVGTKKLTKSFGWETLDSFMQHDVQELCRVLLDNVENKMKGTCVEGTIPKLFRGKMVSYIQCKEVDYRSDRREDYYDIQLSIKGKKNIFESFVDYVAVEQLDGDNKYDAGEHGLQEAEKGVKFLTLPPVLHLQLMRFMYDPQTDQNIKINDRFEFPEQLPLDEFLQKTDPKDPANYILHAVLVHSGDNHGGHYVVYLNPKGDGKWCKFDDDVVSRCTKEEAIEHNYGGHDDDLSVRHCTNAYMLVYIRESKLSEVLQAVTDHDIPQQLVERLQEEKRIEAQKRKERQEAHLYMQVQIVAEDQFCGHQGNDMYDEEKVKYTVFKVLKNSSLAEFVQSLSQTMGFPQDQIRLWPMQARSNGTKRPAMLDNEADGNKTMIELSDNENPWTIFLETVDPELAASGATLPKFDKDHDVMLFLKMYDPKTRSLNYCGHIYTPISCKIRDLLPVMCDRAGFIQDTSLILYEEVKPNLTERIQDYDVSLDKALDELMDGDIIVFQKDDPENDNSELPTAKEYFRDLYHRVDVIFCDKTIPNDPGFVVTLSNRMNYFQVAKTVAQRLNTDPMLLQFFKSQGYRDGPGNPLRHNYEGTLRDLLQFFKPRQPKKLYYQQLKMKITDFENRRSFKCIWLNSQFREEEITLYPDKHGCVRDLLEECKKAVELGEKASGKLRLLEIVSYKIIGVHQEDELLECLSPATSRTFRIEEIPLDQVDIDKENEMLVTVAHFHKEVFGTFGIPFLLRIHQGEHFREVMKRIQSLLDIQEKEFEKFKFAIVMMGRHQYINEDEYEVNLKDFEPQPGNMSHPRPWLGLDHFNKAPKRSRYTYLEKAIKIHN
Protocol: Example A. Biochemical Assay of USP7 Inhibitor Potency (IC50)
Fluorescence intensity assay of USP7 activity in the presence USP7 inhibitors. Recombinant USP7 protein (catalogue number E-519) and the fluorescence substrate ubiquitin-rhodamine 110 (Rh110) (catalogue number U-555) were purchased from Boston Biochem (840 Memorial Drive, Cambridge, MA 02139). The reaction was carried out in buffer 20 mM HEPES, pH 7.3, 150 mM NaCl, 1 mM TCEP, 125 μg/mL BSA at room temperature in a black 384-well Microplate (Greiner, catalog number 781076).
Test compounds were dissolved in DMSO to make 50 mM stock solution. […] In wells of a black 384-well Microplate, 15 μl of 100 pM of USP7 enzyme was added to each well with pre-diluted compounds and incubated at room temperature for 30 minutes, followed by addition of 10 μl of ubiquitin-rhodamine 110 (Rh110) substrate to reach 160 nM final concentration. The reaction mixtures were incubated for additional 90 minutes at room temperature. The fluorescence signal of the digested substrate was measured on an EnVision microplate reader (PerkinElmer,), using excitation at 485 nm and emission at 535 nm. The IC50 values were calculated using XLfit software.
As for `CC(C)(C)c1cnn(Cc2cc3nccc(-c4cc(C#N)cc5c4N([C@H]4CN[C@@H](CO)C4)C[C@@H]4C[C@H]54)c3s2)c(=O)c1` (single isomer, unassigned) [Example 193a], the IC50 is more than 1000 nM.

In turn, `O=C1CCC(=O)N1Cc1cc2nccc(-c3cc(Cl)cc4c3C(N3CCNCC3)CCO4)c2s1` (single isomer, unassigned) [Example 52b] showed an IC50 of less than 10 nM.

Compound `O=c1cccnn1Cc1cc2nccc(-c3cc(Cl)cc4c3N(C3CNC3)CCC4)c2s1` [Example 16, 2-[[7-[1-(azetidin-3-yl)-6-chloro-3,4-dihydro-2H-quinolin-8-yl]thieno[3,2-b]pyridin-2-yl]methyl]pyridazin-3-one] showed an IC50 of 10 to 100 nM.

Compound `O=C1CCC(=O)N1Cc1cc2nccc(-c3cc(Cl)cc4c3N([C@@H]3CN(CCc5nnn[nH]5)C5(CCC5)C3)CCC4)c2s1` [Example 144, (S)-1-((7-(1-(5-(2-(1H-tetrazol-5-yl)ethyl)-5-azaspiro[3.4]octan-7-yl)-6-chloro-1,2,3,4-tetrahydroquinolin-8-yl)thieno[3,2-b]pyridin-2-yl)methyl)pyrrolidine-2,5-dione] came in with an IC50 of 10 to 100 nM.

In turn, `O=C1CCC(=O)N1Cc1cc2nccc(-c3cc(C(F)(F)F)cc4c3N([C@@H]3CCNC3)CCC4)c2s1` (single isomer, unassigned) [Example 78] gave an IC50 of 10 to 100 nM.

Turning to `Cc1cnn(Cc2cc3nccc(-c4cc(C#N)cc5c4N(C4CNC6(CCC6)C4)CCC5)c3s2)c(=O)c1` (single isomer, unassigned) [Example 164b], the 50% inhibitory concentration (IC50) lay within 101 to 1000 nM.

Compound `O=C1CCN(CC(F)(F)F)C(=O)N1Cc1cc2nccc(-c3cc(Cl)cc4c3N([C@H]3CCNC3)CCC4)c2s1` [Example 77, (S)-3-((7-(6-chloro-1-(pyrrolidin-3-yl)-1,2,3,4-tetrahydroquinolin-8-yl)thieno[3,2-b]pyridin-2-yl)methyl)-1-(2,2,2-trifluoroethyl)dihydropyrimidine-2,4(1H,3H)-dione] showed an IC50 of less than 10 nM.

`C[C@]1(CO)C[C@H](N2CCOc3cc(C#N)cc(-c4cc[n+]([O-])c5cc(Cn6ncc(C7(C(F)(F)F)CC7)cc6=O)sc45)c32)CN1` [Example 223, 7-(7-cyano-4-((3S,5R)-5-(hydroxymethyl)-5-methylpyrrolidin-3-yl)-3,4-dihydro-2H-benzo[b][1,4]oxazin-5-yl)-2-((6-oxo-4-(1-(trifluoromethyl)cyclopropyl)pyridazin-1(6H)-yl)methyl)thieno[3,2-b]pyridine 4-oxide] registered an IC50 of 10 to 100 nM.

The compound `O=C1CCC(=O)N1Cc1cc2nccc(-c3cc(Cl)cc4c3N([C@@H]3CNC5(CCC5)C3)CCC4)c2s1` (single isomer, unassigned) [Example 139b] displayed an IC50 of less than 10 nM.

For the compound `CC1(c2cnn(Cc3cc4nccc(-c5cc(C#N)cc6c5N([C@@H]5CN[C@@H](CO)C5)C[C@@H]5C[C@H]65)c4s3)c(=O)c2)CC1` (single isomer, unassigned) [Example 195b], the IC50 was less than 10 nM.

In turn, `CN1CC[C@H](N2CCCc3cc(Cl)cc(-c4ccnc5cc(CN6C(=O)CCC6=O)sc45)c32)C1` [Example 59, (S)-1-((7-(6-chloro-1-(1-methylpyrrolidin-3-yl)-1,2,3,4-tetrahydroquinolin-8-yl)thieno[3,2-b]pyridin-2-yl)methyl)pyrrolidine-2,5-dione] had a half-inhibitory concentration (IC50) of less than 10 nM.

For `O=C1COC(=O)N1Cc1cc2nccc(-c3cc(Cl)cc4c3N(C3CNC3)CCC4)c2s1` [Example 27, 3-[[7-[1-(azetidin-3-yl)-6-chloro-3,4-dihydro-2H-quinolin-8-yl]thieno[3,2-b]pyridin-2-yl]methyl]oxazolidine-2,4-dione], the half-maximal inhibitory concentration (IC50) lay within 10 to 100 nM.

The compound `Cn1ccc(=O)n(Cc2cc3nccc(-c4cc(C#N)cc5c4N(C4CNC(C)(C)C4)CCC5)c3s2)c1=O` (stereo in doubt) [Example 121, (S)-1-(5,5-dimethylpyrrolidin-3-yl)-8-(2-((3-methyl-2,6-dioxo-3,6-dihydropyrimidin-1(2H)-yl)methyl)thieno[3,2-b]pyridin-7-yl)-1,2,3,4-tetrahydroquinoline-6-carbonitrile] gave an IC50 of less than 10 nM.

For `O=c1ccn(CC(F)F)c(=O)n1Cc1cc2nccc(-c3cc(Cl)cc4c3N([C@H]3CCNC3)CCC4)c2s1` [Example 101, (S)-3-((7-(6-chloro-1-(pyrrolidin-3-yl)-1,2,3,4-tetrahydroquinolin-8-yl)thieno[3,2-b]pyridin-2-yl)methyl)-1-(2,2-difluoroethyl)pyrimidine-2,4(1H,3H)-dione], the IC50 is less than 10 nM.

As for `N#Cc1cc2c(c(-c3ccnc4cc(CN5C(=O)C6CC6C5=O)sc34)c1)N([C@H]1CNC3(CCCC3)C1)CCC2` (stereo partly drawn) [Example 178a, 8-(2-((2,4-dioxo-3-azabicyclo[3.1.0]hexan-3-yl)methyl)thieno[3,2-b]pyridin-7-yl)-1-((R)-1-azaspiro[4.4]nonan-3-yl)-1,2,3,4-tetrahydroquinoline-6-carbonitrile], the IC50 lay in the range of 101 to 1000 nM.

In turn, `N[C@H]1C[C@H](N2CCCc3cc(Cl)cc(-c4ccnc5cc(CN6C(=O)CCC6=O)sc45)c32)C1` (single isomer, unassigned) [Example 42b, trans-1-((7-(1-(3-aminocyclobutyl)-6-chloro-1,2,3,4-tetrahydroquinolin-8-yl)thieno[3,2-b]pyridin-2-yl)methyl)pyrrolidine-2,5-dione] registered an IC50 of 10 to 100 nM.

The compound `CC1(C)C[C@H](N2CCCc3cc(C#N)cc(-c4ccnc5cc(CN6C(=O)CN(C7CC7)C6=O)sc45)c32)CN1` [Example 131, (S)-8-(2-((3-cyclopropyl-2,5-dioxoimidazolidin-1-yl)methyl)thieno[3,2-b]pyridin-7-yl)-1-(5,5-dimethylpyrrolidin-3-yl)-1,2,3,4-tetrahydroquinoline-6-carbonitrile] came in with an IC50 of less than 10 nM.

For the compound `Cc1ccnn(Cc2cc3nccc(-c4cc(C(F)(F)F)cc5c4N([C@@H]4CNC6(CCC6)C4)CCO5)c3s2)c1=O` [Example 176b, (S)-2-((7-(4-(5-azaspiro[3.4]octan-7-yl)-7-(trifluoromethyl)-3,4-dihydro-2H-benzo[b][1,4]oxazin-5-yl)thieno[3,2-b]pyridin-2-yl)methyl)-4-methylpyridazin-3(2H)-one], the IC50 is less than 10 nM.

`CCN1CC[C@H](N2CCCc3cc(C#N)cc(-c4ccnc5cc(Cn6c(=O)ccn(CC(F)(F)F)c6=O)sc45)c32)C1` [Example 84, (S)-8-(2-((2,6-dioxo-3-(2,2,2-trifluoroethyl)-2,3-dihydropyrimidin-1(6H)-yl)methyl)thieno[3,2-b]pyridin-7-yl)-1-(1-ethylpyrrolidin-3-yl)-1,2,3,4-tetrahydroquinoline-6-carbonitrile] had an IC50 of less than 10 nM.

With `O=c1ccn(C2CC2)c(=O)n1Cc1cc2nccc(-c3cc(C(F)(F)F)cc4c3N(C3CNC5(CCC5)C3)CCC4)c2s1` (single isomer, unassigned) [Example 162a], the IC50 was less than 10 nM.

`O=C1CCC(=O)N1Cc1cc2ncnc(-c3cc(Cl)cc4c3N(C3CNC5(CCC5)C3)CCC4)c2s1` (single isomer, unassigned) [Example 161b]: the IC50 fell in the range of 101 to 1000 nM.

The compound `O=C1CCC(=O)N1Cc1cc2nccc(-c3cc(C(F)(F)F)cc4c3N(C3CNC3)CCC4)c2s1` [Example 39] came in with a concentration for half-maximal inhibition (IC50) of 10 to 100 nM.

In turn, `CC1(C)C[C@H](N2CCCc3cc(Cl)cc(-c4ccnc5cc(Cn6c(=O)ccn(CC(F)(F)F)c6=O)sc45)c32)CN1` (single isomer, unassigned) [Example 118b] displayed a concentration for half-maximal inhibition (IC50) of less than 10 nM.

Take `N#Cc1cc2c(c(-c3ccnc4cc(Cn5c(=O)ccn(C6CC6)c5=O)sc34)c1)N([C@H]1CCNC1)CCC2` [Example 88, (S)-8-(2-((3-cyclopropyl-2,6-dioxo-2,3-dihydropyrimidin-1(6H)-yl)methyl)thieno[3,2-b]pyridin-7-yl)-1-(pyrrolidin-3-yl)-1,2,3,4-tetrahydroquinoline-6-carbonitrile]: the IC50 was less than 10 nM.

Compound `O=C1CCC(=O)N1Cc1cc2nccc(-c3cccc4c3N([C@H]3CCNC3)CCO4)c2s1` (single isomer, unassigned) [Example 111a] displayed an IC50 of 10 to 100 nM.

Turning to `N#CC1(CN2CC(N3CCCc4cc(Cl)cc(-c5ccnc6cc(CN7C(=O)CCC7=O)sc56)c43)C2)CC1` [Example 12, 1-((3-(6-chloro-8-(2-((2,5-dioxopyrrolidin-1-yl)methyl)thieno[3,2-b]pyridin-7-yl)-3,4-dihydroquinolin-1(2H)-yl)azetidin-1-yl)methyl)cyclopropanecarbonitrile], the IC50 is 101 to 1000 nM.

For the compound `O=C1CCC(=O)N1Cc1cc2ncnc(-c3cc(Cl)cc4c3N([C@H]3CNC5(CCC5)C3)C[C@@H]3C[C@H]43)c2s1` [Example 167c, 1-((4-((1aR,7bS)-6-chloro-3-((R)-5-azaspiro[3.4]octan-7-yl)-1a,2,3,7b-tetrahydro-1H-cyclopropa[c]quinolin-4-yl)thieno[3,2-d]pyrimidin-6-yl)methyl)pyrrolidine-2,5-dione], the IC50 is 10 to 100 nM.

In turn, `O=C1COc2cc(Cl)cc(-c3ccnc4cc(Cn5ncc(C6CC6)cc5=O)sc34)c2N1[C@@H]1CNC2(CCC2)C1` [Example 174, (S)-7-chloro-5-(2-((4-cyclopropyl-6-oxopyridazin-1(6H)-yl)methyl)thieno[3,2-b]pyridin-7-yl)-4-(5-azaspiro[3.4]octan-7-yl)-2H-benzo[b][1,4]oxazin-3(4H)-one] registered an IC50 of less than 10 nM.

Compound `CC1(C)C2C(=O)N(Cc3cc4nccc(-c5cc(C#N)cc6c5N([C@@H]5CN[C@@](C)(CO)C5)CCO6)c4s3)C(=O)C21` (stereo partly drawn) [Example 220, 5-(2-((6,6-dimethyl-2,4-dioxo-3-azabicyclo[3.1.0]hexan-3-yl)methyl)thieno[3,2-b]pyridin-7-yl)-4-((3S,5R)-5-(hydroxymethyl)-5-methylpyrrolidin-3-yl)-3,4-dihydro-2H-benzo[b][1,4]oxazine-7-carbonitrile] had an IC50 of less than 10 nM.

As to `O=C1CCC(=O)N1Cc1cc2nccc(-c3cc(Cl)cc4c3N([C@@H]3CN(C[C@H](O)C(F)(F)F)C5(CCC5)C3)CCC4)c2s1` (single isomer, unassigned) [Example 143a], the IC50 fell in the range of 10 to 100 nM.
